Data: patent US11873295B2, “Allosteric chromenone inhibitors of phosphoinositide 3-kinase (PI3K) for the treatment of disease” (Petra Pharma Corporation, priority 2021, dated 2024)

What was measured:
[1] = biological target: T1, human full length PIK3KA H1047R mutant (p110α/p85α complex) (Homo sapiens, UniProt P42336, H1047R); assay: PI3K-alpha kinase (PIK3CA) biochemical activity, H1047R mutant, ADP-Glo; settings: PI3K-α (PIK3CA) biochemical, H1047R mutant, Soy PI lipid substrate
T1 construct: Recombinant, catalytically active human full length PIK3KA Wild-type and H1047R mutant were purchased as 1:1 complex; 6xHis (N); purchased EMD Millipore Sigma 14-792M
T1 sequence (P42336 whole entry H1047R): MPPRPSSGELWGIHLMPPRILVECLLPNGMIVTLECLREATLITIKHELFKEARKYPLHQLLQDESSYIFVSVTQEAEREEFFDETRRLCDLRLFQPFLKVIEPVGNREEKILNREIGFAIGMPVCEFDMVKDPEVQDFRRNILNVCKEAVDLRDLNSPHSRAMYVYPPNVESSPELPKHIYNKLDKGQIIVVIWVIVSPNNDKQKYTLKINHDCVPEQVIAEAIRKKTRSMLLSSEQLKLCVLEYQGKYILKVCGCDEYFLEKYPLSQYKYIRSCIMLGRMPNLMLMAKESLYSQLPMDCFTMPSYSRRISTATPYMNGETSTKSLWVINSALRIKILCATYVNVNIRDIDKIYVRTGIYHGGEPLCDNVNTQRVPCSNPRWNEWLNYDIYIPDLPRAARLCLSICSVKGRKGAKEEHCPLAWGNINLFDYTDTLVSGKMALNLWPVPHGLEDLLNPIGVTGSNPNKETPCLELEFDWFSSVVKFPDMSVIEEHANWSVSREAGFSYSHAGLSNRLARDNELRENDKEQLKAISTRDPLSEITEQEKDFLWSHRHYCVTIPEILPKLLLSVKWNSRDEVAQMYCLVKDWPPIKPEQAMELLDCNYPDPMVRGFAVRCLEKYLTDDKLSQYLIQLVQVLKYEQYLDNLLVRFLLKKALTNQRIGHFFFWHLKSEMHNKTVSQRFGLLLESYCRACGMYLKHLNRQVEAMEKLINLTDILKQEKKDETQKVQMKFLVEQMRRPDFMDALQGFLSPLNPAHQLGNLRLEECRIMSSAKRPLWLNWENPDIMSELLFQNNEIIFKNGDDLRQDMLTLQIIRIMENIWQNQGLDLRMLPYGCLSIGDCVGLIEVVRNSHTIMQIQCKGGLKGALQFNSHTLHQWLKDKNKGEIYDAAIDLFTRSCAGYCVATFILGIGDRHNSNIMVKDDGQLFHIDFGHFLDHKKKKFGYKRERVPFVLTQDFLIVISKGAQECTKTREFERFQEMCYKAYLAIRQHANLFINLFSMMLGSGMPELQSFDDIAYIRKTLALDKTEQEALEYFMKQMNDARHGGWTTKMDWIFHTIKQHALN
T1 sequence (P27986 whole entry partner): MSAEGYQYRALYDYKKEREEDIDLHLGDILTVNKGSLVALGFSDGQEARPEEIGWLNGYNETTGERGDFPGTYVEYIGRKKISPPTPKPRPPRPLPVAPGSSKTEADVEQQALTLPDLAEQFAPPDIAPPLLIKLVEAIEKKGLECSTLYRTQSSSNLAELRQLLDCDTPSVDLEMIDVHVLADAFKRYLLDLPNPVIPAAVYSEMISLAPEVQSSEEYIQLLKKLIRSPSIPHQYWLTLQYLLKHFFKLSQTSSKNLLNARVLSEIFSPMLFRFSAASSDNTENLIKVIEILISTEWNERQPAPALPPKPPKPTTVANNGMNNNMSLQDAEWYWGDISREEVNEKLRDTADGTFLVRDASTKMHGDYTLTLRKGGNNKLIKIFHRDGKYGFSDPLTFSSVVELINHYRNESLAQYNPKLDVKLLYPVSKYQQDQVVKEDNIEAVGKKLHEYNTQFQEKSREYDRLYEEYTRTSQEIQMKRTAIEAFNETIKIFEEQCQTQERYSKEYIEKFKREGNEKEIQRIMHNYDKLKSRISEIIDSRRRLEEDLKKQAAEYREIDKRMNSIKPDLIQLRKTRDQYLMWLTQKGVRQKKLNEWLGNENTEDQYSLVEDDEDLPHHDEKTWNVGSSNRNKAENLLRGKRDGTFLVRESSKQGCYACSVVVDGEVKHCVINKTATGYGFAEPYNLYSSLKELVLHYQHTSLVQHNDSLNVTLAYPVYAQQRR
Summary of the method: (§1)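 ADP formation, read by ADP-Glo, is run to about 10% ATP turnover at 27 °C with 20 μM ATP and 50 μM PIP2diC8 or soy PI. WT or H1047R p110α/p85α (1–5 nM) is pre-incubated 1 h with compound in HEPES pH 7.4/MgCl2/Triton buffer, 1% DMSO. 10-point 1:3 series, logistic IC50 versus no-enzyme and DMSO controls.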

[2] = tested on: PI3K-α (PIK3CA) in MDA-MB-453 cells; assay: PI3K-alpha kinase (PIK3CA) activity in vitro cell based assay, MDA-MB-453 cells, AlphaLisa SureFire; settings: 0% FBS, 3 hours treatment, relative IC50
Experimental: PI3K-Alpha Kinase (PIK3CA) Activity In Vitro Cell Based Assay and Determining IC50 Values for Inhibitors
The MDA-MB-453 (ATCC-HTB-131) cell line was obtained from the American Type Culture Collection (Manassas, VA). Cells were maintained in Dulbecco's Modified Eagle Media (DMEM, Gibco 11965-092) supplemented with 10% Fetal Bovine Serum, heat inactivated (FBS HI, Gibco 10082-147), 1× non-essential amino acids (NEAA, Gibco 11140-050), and 1 mM sodium pyruvate (Gibco 11360-070). Cultures were maintained in a humidified incubator at 37° C. under 5% CO2/95% air.
For compound testing in 0% FBS, MDA-MB-453 cells were seeded at a density of 1.5×10^4 cells per well in white 384-well plates in 20 μl of Minimum Essential Media (MEM) assay media with 1×NEAA, 1 mM sodium pyruvate, and 1 μg/mL human insulin (Sigma I9278). Compounds dissolved in 10 mM stock solutions in DMSO were serially diluted 1:3 in DMSO to generate a 10-point dilution series and plated using an acoustic liquid handler system (Echo 550 Series Liquid Handler, Labcyte). A 5× intermediate compound dilution plate in MEM with 1×NEAA and 1 mM sodium pyruvate (150 μM starting compound concentration in 1.5% DMSO) was then prepared. Five μl of the intermediate serially diluted compounds were added to the cell plate to final concentrations ranging from […] in 0.3% DMSO. 0.3% DMSO alone was used to establish the maximum (MAX) signal and GDC-0032 at a final concentration of 1 μM was used as a reference compound for the minimum (MIN) signal. After 3 hours treatment, the medium was removed, and the cells lysed in 10 μL of 1× SureFire Lysis buffer with shaking for 10 minutes at room temperature. The Acceptor Mix (Reaction Buffer 1+Reaction Buffer 2+Activation Buffer+SureFire Ultra Acceptor Beads) was prepared by diluting Activation buffer 25-fold in combined Reaction Buffer 1 and Reaction Buffer 2. The Acceptor beads were diluted 50-fold in the combined Reaction Buffers. Five μL of Acceptor Mix was added to each well, the plate was sealed and covered with foil and incubated for 1 hour at room temperature. The Donor Mix (dilution buffer+SureFire Ultra Donor Beads) was prepared by diluting Donor Beads 50-fold in dilution buffer. Five μL of the Donor Mix was added to each well and the plate sealed and covered with foil and incubated for 1 hour at room temperature in the dark. The plates were read on a Neo2 plate reader instrument from Biotek using standard AlphaLisa settings. Compounds were tested in duplicate and the average % inhibition at each compound concentration was used to generate a single dose response curve. The data were processed using the Genedata-Screener tool. Relative IC50 values were determined using luminescence units by calculating percent inhibition with respect to the in-plate “MIN” (GDC-0032 reference control) and “MAX” (DMSO) controls. The data was analyzed using a 4-parameter nonlinear logistic equation (four-parameter logistic concentration-response curve): Y=bottom+[(top−bottom)/1+(X/IC50)slope] where Y=% inhibition, X=concentration of inhibitor, bottom=minimum value of y attained by curve-fit, top=maximum value of y attained by curve-fit and slope=steepness of curve at the IC50. % Inhibition=[(signal at X−median Min)/(median Max−median Min)]×100 IC50: concentration of compound that reduces a given response (ligand binding, enzyme response) by 50%. Relative IC50: concentration giving half the compound's maximum response.
For IC50 values shown in Table B, “A” means IC50<50 nM; “B” means IC50 ranging between 50 nM and 100 nM; “C” means IC50 ranging between 100 nM and 500 nM; “D” means IC50>500 nM.

[3] = biological target: T2, human full length PIK3KA Wild-type (p110α/p85α complex) (Homo sapiens, UniProt P42336); assay: PI3K-alpha kinase (PIK3CA) biochemical activity, wild-type, ADP-Glo; settings: PI3K-α (PIK3CA) biochemical, Soy PI lipid substrate
T2 construct: Recombinant, catalytically active human full length PIK3KA Wild-type and H1047R mutant were purchased as 1:1 complex; 6xHis (N); purchased EMD Millipore Sigma 14-602M
Summary of the method: as §1

IC50 [1] [nM] | IC50 ([2]; Homo sapiens, MDA-MB-453, 3 h) [nM] | IC50 [3] [µM] | IC50 [2] [nM] | SMILES
< 500 | < 50 | 1 to 5 | – | COC(=O)c1cccc(-c2oc3c([C@@H](C)Nc4ccccc4C(=O)O)cc(C)cc3c(=O)c2C)c1 [Example 150, 2-[[(1R)-1-[2-(3-Methoxycarbonylphenyl)-3,6-dimethyl-4-oxo-chromen-8-yl]ethyl]amino]benzoic acid]
< 500 | 50 to 100 | 1 to 5 | – | Cc1cc([C@@H](C)Nc2ccccc2C(=O)O)c2oc(-c3ccccc3)c(C3COC3)c(=O)c2c1 [Example 112, 2-[[(1R)-1-[6-methyl-3-(oxetan-3-yl)-4-oxo-2-phenyl-chromen-8-yl]ethyl]amino]benzoic acid 2,2,2-trifluoroacetic acid]
< 500 | < 50 | 0.5 to 1 | – | Cc1cc([C@@H](C)Nc2ccc(C#N)nc2C(=O)O)c2oc(-c3ccccc3)c(C)c(=O)c2c1 (single isomer, unassigned; isomer 1) [Example 159]
500 to 1000 | 50 to 100 | 5 to 10 | – | Cc1cc([C@@H](C)Nc2cccnc2C(=O)O)c2oc(-c3cccc(C#N)c3)c(C)c(=O)c2c1 [Example 125, 3-[[(1R)-1-[2-(3-Cyanophenyl)-3,6-dimethyl-4-oxo-chromen-8-yl]ethyl]amino]pyridine-2-carboxylic acid]

The next lines start with the molecule.

SMILES | IC50 [1] [nM] | IC50 ([2]; Homo sapiens, MDA-MB-453, 3 h) [nM] | IC50 [3] [µM] | IC50 [2] [nM]
Cc1cc(C(C)Nc2cccc(F)c2C(=O)O)c2oc(-c3ccccc3F)cc(=O)c2c1 (single isomer, unassigned; isomer 2) [Example 108, 2-Fluoro-6-[1-[2-(2-fluorophenyl)-6-methyl-4-oxo-chromen-8-yl]ethylamino]benzoic acid, Isomer 2] | 5000 to 10000 | > 500 | > 10 | –
Cc1cc([C@@H](C)Nc2ccccc2C(=O)O)c2oc(-c3ccc(-c4ncco4)cc3)cc(=O)c2c1 [Example 32, 2-[[(1R)-1-[6-Methyl-2-(4-oxazol-2-ylphenyl)-4-oxo-chromen-8-yl]ethyl]amino]benzoic acid] | < 500 | < 50 | 5 to 10 | –
Cc1c(-c2ccc(F)c(F)c2)oc2c([C@@H](C)Nc3ccc(Cl)nc3C(=O)O)cc(C(F)(F)F)cc2c1=O [Example 96, 6-Chloro-3-[[(1R)-1-[2-(3,4-difluorophenyl)-3-methyl-4-oxo-6-(trifluoromethyl)-chromen-8-yl]ethyl]amino]pyridine-2-carboxylic acid] | < 500 | < 50 | 1 to 5 | –
Cc1cc(C(C)Nc2ccccc2C(=O)O)c2oc(-c3ccc(C4(C#N)CC4)cc3)cc(=O)c2c1 (single isomer, unassigned; isomer 1) [Example 52, 2-[1-[2-[4-(l-Cyanocyclopropyl)phenyl]-6-methyl-4-oxo-chromen-8-yl]ethylamino]benzoic acid, Isomer 1] | 5000 to 10000 | > 500 | 5 to 10 | –
Cc1cc([C@@H](C)Nc2ccccc2C(=O)O)c2oc(-c3ccccc3C)cc(=O)c2c1 [Example 14, 2-[[(1R)-1-[6-Methyl-2-(o-tolyl)-4-oxo-chromen-8-yl]ethyl]amino]benzoic acid] | < 500 | < 50 | > 10 | –
Cc1cc(C(C)Nc2cccnc2C(=O)O)c2oc(-c3ccccc3F)c(C)c(=O)c2c1 (stereo not drawn) [Example 93, 3-[1-[2-(2-Fluorophenyl)-3,6-dimethyl-4-oxo-chromen-8-yl]ethylamino]pyridine-2-carboxylic acid 2,2,2-trifluoroacetic acid] | 1000 to 5000 | 100 to 500 | > 10 | –
Cc1cc(C(C)Nc2cccc(F)c2C(=O)O)c2oc(-c3cccc(F)c3)c(C)c(=O)c2c1 (single isomer, unassigned; isomer 2) [Example 106, 2-Fluoro-6-[1-[2-(3-fluorophenyl)-3,6-dimethyl-4-oxo-chromen-8-yl]ethylamino]benzoic acid, Isomer 2] | 1000 to 5000 | – | 1 to 5 | > 500
